Literature values as cited in patent publication US12390475B2, “Dry powder treprostinil for the treatment of pulmonary hypertension” (priority 2016, dated 2025).
Like-named read-outs stand apart in the source and are kept apart here.

How the values were obtained:
[1] = various buffer solutions at various pH levels, octanol
[2] = aqueous titration with 20% ethanol as a co-solvent

Compound | distribution coefficient [1] | solubility (unbuffered water and low pH buffers) | pKa [2] | solubility (in acetone) | solubility (in acetonitrile) | solubility (in ethanol) | solubility (in ethyl acetate) | solubility (in n-hexane) | solubility (in water)
CCCCC[C@H](O)CC[C@@H]1[C@H]2Cc3cccc(OCC(=O)O)c3C[C@H]2C[C@H]1O [Treprostinil, 2-[[(1R,2R,3aS,9aS)-2-hydroxy-1-[(3S)-3-hydroxyoctyl]-2,3,3a,4,9,9a-hexahydro-1H-cyclopenta[g]naphthalen-5-yl]oxy]acetic acid] | distribution into octanol layers at all pH levels | poorly soluble | 4.5 | – | – | – | – | – | –
CCCCC[C@H](O)CC[C@@H]1[C@H]2Cc3cccc(OCC(=O)[O-])c3C[C@H]2C[C@H]1O.[Na+] [Treprostinil sodium] | – | – | – | very slightly soluble | practically insoluble | very soluble | practically insoluble | practically insoluble | very soluble
